# Values of other authors, collected in patent US7635572B2, “Methods for conducting assays for enzyme activity on protein microarrays” (Life Technologies Corporation, priority 2004, dated 2009).
# Test system: 39 kinases (Table 4)
# Conditions: known general specificities of the inhibitors, Table 3; cited from earlier work
smiles,measurement,value
Oc1ccc(-c2nc(-c3ccncc3)c(-c3ccc(F)cc3)[nH]2)cc1 [SB 202190],General Specificity (known),serine/threonine
